Where two headings read alike, the source gives them in different places.

Test [1] has as its system ChREBP. As to the kind of experiment: Hepatic nuclear ChREBP protein levels in PDK inhibitor-treated DIO mice. Type of test: in vivo. Particulars: 40 mg/kg/day by mini-pumps for 5 days. The source says:
The antibody (from Santa Cruz) against the 95-kilodalton ChREBP is highly specific; no signal was detected in hepatic nuclear fractions from ChREBP KO mice. The reduced nuclear ChREBP protein levels correlate with curtailed liver-type pyruvate kinase (LPK) (FIG. 11B), the marker glycolytic enzyme tightly regulated by ChREBP^5. The increased PDC flux is indicated by diminished phosphorylation of the decarboxylase/dehydrogenase (E1)-α subunit of this enzyme complex (FIG. 11B); while the expression of this subunit is not affected (not shown). The glucose-sensitive transcription factor ChREBP discovered and cloned by the Uyeda group in 2001 (Yamashita et al., 2001) has emerged as a central regulator of lipogenesis in liver (Uyeda and Repa, 2006; Filhoulaud et al., 2013; Denechaud et al., 2008) and β-cells (Cha-Molstad et al., 2009; Kibbe et al., 2013) at the transcriptional level (Uyeda and Repa, 2006; Filhoulaud et al., 2013; Denechaud et al., 2008). […] Therefore, the inventors propose that increased glucose oxidation through PDC flux lowers hepatic glucose concentrations and attenuates nuclear ChREBP-mediated de novo lipogenesis in liver (FIG. 12A). […]

Test [2] deals with PDK4 (Homo sapiens, UniProt Q16654). Briefly: Assay for inhibition of PDK activity, PDK4. Set-up: made in house. Type of test: biochemical. The protocol: (§1) Recombinant human PDK2 was expressed and purified as a N terminal His6-tagged SUMO fusion protein with a tobacco-etch-virus protease (TEV) cleavage site in front of the N-terminal PDK2 sequence (26), and was used directly for the activity assay and binding affinity analyses. […] The purified protein was concentrated to 35-40 mg/ml and stored at −80° C. in small aliquots. Recombinant human PDK1, PDK3 and PDK4 were expressed and purified as described previously (26).
(§2) The remaining steps were described previously (26). IC50 values were obtained by the curve fitting of inhibition isotherms using Prism 6 (GraphPad software, Inc.).

Test [3] relates to DIO mice. As to the kind of experiment: Blood biochemistry of DIO mice (lactate, cholesterol, triglycerides). Type of test: in vivo. Particulars: 70 mg/kg/day. As for the experimental part:
Six- to eight-week old C57BL/6J male mice were obtained from the local campus breeding colony at UT Southwestern Medical Center (Dallas, Tex.) and randomized into two groups: vehicle- and PS10-treated. Prior to the treatment, mice were fed with a 60% high-fat diet, which contained 32% saturated and 68% unsaturated fat (catalog number: D12492, Research Diet Inc. New Brunswick, N.J.), for eight to ten weeks to produce DIO animals. PS-10 was dissolved in 100% DMSO and then diluted to make a 10% DMSO aqueous solution containing 17.5% (w/v) (2-hydroxypropyl)-β-cyclodextrin for delivery. Animals were dosed at mid-day by intraperitoneal (IP) injections at 70 mg/kg using 1-ml syringe and 30-gauge needle. The length of the treatment is indicted in each experiment. At 10 h after the last injection, animals were euthanized using carbon dioxide asphyxiation followed by cervical dislocation and dissection. Blood was harvested by cardiac puncture and stored on ice. Acidified citrate dextrose (ACD) was used as an anticoagulant. Immediately after blood collection, heart, liver, kidneys and both hind-leg quadriceps muscles were removed and snap frozen in liquid nitrogen. Average ischemia time before organ harvest was about 2 to 3 min. Blood was centrifuged in an Eppendorf 5415R refrigerated microcentrifuge at 9,300×g for 5 min to isolate plasma, which was subsequently stored at −80° C.
Glucose levels were determined with Sigma Diagnostics Glucose (Sigma Aldrich, St. Louis, Mo.). The levels of lactate, cholesterol, and triglyceride were measured by Vitros 250 blood chemistry analyzer (Johnson & Johnson Inc.) in the Metabolic Phenotyping Core in UT Southwestern Medical Center.

In test [4] the target is PDK2 (Homo sapiens, UniProt Q15119). As to the kind of experiment: Assay for inhibition of PDK activity, PDK2. Type of test: biochemical. Set-up: made in house. The protocol: as §1, §2

PDK4, sequence (Q16654 whole entry, the tested form may be a part): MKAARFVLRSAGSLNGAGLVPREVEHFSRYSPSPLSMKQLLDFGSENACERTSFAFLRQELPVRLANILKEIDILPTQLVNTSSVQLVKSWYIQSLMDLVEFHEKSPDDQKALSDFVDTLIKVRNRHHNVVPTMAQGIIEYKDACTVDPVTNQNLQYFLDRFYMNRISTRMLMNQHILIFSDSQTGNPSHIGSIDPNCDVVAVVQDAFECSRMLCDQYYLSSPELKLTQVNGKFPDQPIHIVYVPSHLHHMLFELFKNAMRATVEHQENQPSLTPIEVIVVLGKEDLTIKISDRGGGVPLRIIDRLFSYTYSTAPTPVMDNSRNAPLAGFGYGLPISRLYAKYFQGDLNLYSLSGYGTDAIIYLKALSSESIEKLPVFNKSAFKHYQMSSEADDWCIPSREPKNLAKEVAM

Broadly, the IC50 is the concentration at which inhibition is half-maximal. As for `O=S(=O)(c1ccc(O)cc1O)N1Cc2cc(O)cc(O)c2C1` [PS10, 2-((2,4-dihydroxyphenyl)sulfonyl)isoindoline-4,6-diol], the “ChREBP protein levels in hepatic nuclear fractions” value in test [1] is “drastically decreased”. The IC50 in test [2] (Table 1, inhibitor 31.6 nM to 1 mM, read-out: IC50, μM for PDK4) stood at 0.76 µM; in test [2] (absence of E2/E3BP core (−), read-out: IC50 for PDK4), 0.77 µM; in test [4] (Table 1, inhibitor 31.6 nM to 1 mM, read-out: IC50, μM for PDK2), 0.8 µM; in test [4] (absence of E2/E3BP core (−), read-out: IC50 for PDK2), 0.8 µM. Moreover, the “plasma cholesterol vs vehicle-treated” value in test [3] is “significantly lower”. Also, in test [3], the “plasma lactate vs vehicle-treated” value is “significantly lower”. In addition, in test [3], the “plasma triglycerides vs vehicle-treated” value is given as “significantly lower”.
